Measurements as given in patent publication US20120195837A1, “TIN(II)-2-HYDROXYCARBOXYLATES” (HONEYWELL INTERNATIONAL INC., priority 2011, published 2012).

Columns and labels:
[1] = Oral care application of formulated dentifrice or oral wash; assay type: in vivo; conditions: formulated as oral dentifrice or oral wash
From the text: A sample of tin(II) L-lactate (Example 2) is formulated as an oral dentifrice or oral wash, using additives and methods as known in the art.

[2] = Physical properties of the solid (hygroscopicity, flow); assay type: physicochemical; conditions: versus stannous chloride dihydrate
From the text: Thus, tin(II) lactate is observed to be a non-hygroscopic, and therefore an easily handlable free-flowing powder. In addition, tin(II) lactate is observed to be non-corrosive.
In addition, tin(II) lactate is observed to be non-corrosive toward standard industrial equipment.

Structure (SMILES) | retention of Sn(II) ion on oral surfaces ([1]; applied for about 5 to about 10 minutes) | plaque formation and/or dental caries ([1]; compared with a control group which lacks the Sn(II) application) | hygroscopicity / powder behaviour [2]
C[C@H](O)C(=O)[O-].C[C@H](O)C(=O)[O-].[Sn+2] [tin(II) L-lactate, Tin(II) L-lactate] | successfully results in retention of Sn(II) ion on oral surfaces | reduces plaque formation and/or dental caries | –
CC(O)C(=O)[O-].CC(O)C(=O)[O-].[Sn+2] (stereo not drawn) [tin(II) lactate, Tin(II) Lactate] | – | – | non-hygroscopic, free-flowing powder
